Test results published in publication PMC11851430, “Workflow for E3 Ligase Ligand Validation for PROTAC Development” (ACS Chemical Biology, 2025).

Legend:
Test in all cases: DSF assay
Assay type in all cases: binding
Conditions in all cases: 20 µM compound
EPHB3A = molecular target: T1, EPHB3A (Homo sapiens, UniProt P54753)
T1 construct: purchased in-house DSF panel (SGC-style construct names; the trailing A/B is a construct suffix)
T1 sequence (P54753 633-896): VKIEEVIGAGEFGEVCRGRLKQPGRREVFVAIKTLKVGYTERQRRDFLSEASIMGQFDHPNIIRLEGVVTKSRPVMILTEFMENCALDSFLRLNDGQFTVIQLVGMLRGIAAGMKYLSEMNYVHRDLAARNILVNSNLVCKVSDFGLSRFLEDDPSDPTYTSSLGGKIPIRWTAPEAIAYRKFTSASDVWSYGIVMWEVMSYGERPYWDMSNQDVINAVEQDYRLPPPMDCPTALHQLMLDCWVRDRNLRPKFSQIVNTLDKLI

PIM3A = molecular target: T2, PIM3A (Homo sapiens, UniProt Q86V86)
T2 construct: purchased in-house DSF panel (SGC-style construct names; the trailing A/B is a construct suffix)

MAPKAPK2A = molecular target: T3, MAPKAPK2A (Homo sapiens, UniProt P49137)
T3 construct: purchased in-house DSF panel (SGC-style construct names; the trailing A/B is a construct suffix)

STK3A = molecular target: T4, STK3A (Homo sapiens, UniProt Q13188)
T4 construct: purchased in-house DSF panel (SGC-style construct names; the trailing A/B is a construct suffix)
T4 sequence (Q13188 16-313): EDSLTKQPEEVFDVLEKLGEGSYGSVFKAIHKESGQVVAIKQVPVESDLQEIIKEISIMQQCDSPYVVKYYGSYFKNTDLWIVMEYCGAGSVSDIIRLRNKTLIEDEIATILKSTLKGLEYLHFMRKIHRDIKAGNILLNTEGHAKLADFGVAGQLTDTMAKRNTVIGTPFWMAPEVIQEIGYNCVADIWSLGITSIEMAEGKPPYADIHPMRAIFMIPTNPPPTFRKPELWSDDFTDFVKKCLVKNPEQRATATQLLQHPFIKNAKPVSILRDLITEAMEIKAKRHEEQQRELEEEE

MAPK14A = molecular target: T5, MAPK14A (Homo sapiens, UniProt Q16539)
T5 construct: purchased in-house DSF panel (SGC-style construct names; the trailing A/B is a construct suffix)

NEK1A = molecular target: T6, NEK1A (Homo sapiens, UniProt Q96PY6)
T6 construct: purchased in-house DSF panel (SGC-style construct names; the trailing A/B is a construct suffix)
T6 sequence (Q96PY6 1-328): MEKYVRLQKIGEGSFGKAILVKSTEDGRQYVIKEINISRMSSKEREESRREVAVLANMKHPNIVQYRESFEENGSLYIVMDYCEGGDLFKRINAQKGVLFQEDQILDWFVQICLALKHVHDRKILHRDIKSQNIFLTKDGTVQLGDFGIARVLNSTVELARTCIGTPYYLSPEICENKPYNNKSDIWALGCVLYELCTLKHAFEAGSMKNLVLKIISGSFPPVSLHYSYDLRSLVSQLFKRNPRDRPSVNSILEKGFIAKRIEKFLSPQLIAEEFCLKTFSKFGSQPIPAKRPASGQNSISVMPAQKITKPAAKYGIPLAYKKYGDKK

STK17A = molecular target: T7, STK17A (Homo sapiens, UniProt Q9UEE5)
T7 construct: purchased in-house DSF panel (SGC-style construct names; the trailing A/B is a construct suffix)
T7 sequence (Q9UEE5 61-321): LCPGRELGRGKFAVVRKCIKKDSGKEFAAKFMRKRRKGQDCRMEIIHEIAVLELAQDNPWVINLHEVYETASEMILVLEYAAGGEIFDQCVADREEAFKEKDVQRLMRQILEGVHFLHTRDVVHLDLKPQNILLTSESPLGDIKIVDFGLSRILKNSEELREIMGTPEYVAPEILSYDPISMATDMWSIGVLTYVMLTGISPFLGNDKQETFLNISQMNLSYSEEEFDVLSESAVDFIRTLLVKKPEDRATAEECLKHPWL

CSNK2A2A = molecular target: T8, CSNK2A2A (Homo sapiens, UniProt P19784)
T8 construct: purchased in-house DSF panel (SGC-style construct names; the trailing A/B is a construct suffix)

MAPK10A = molecular target: T9, MAPK10A (Homo sapiens, UniProt P53779)
T9 construct: purchased in-house DSF panel (SGC-style construct names; the trailing A/B is a construct suffix)

PAK1A = molecular target: T10, PAK1A (Homo sapiens, UniProt Q13153)
T10 construct: purchased in-house DSF panel (SGC-style construct names; the trailing A/B is a construct suffix)

STK17B = molecular target: T11, STK17B (Homo sapiens, UniProt O94768)
T11 construct: purchased in-house DSF panel (SGC-style construct names; the trailing A/B is a construct suffix)
T11 sequence (O94768 25-329): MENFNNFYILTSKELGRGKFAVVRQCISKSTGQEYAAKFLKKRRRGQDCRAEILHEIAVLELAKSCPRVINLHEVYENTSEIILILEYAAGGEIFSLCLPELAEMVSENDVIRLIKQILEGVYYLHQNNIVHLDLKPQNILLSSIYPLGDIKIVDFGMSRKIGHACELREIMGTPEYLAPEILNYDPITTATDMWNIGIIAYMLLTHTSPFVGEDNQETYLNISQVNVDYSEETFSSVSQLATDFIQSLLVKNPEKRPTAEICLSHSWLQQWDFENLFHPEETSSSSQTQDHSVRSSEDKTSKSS

STK10A = molecular target: T12, STK10A (Homo sapiens, UniProt O94804)
T12 construct: purchased in-house DSF panel (SGC-style construct names; the trailing A/B is a construct suffix)

FLT1 = molecular target: T13, FLT1 (Homo sapiens, UniProt P17948)
T13 construct: purchased in-house DSF panel (SGC-style construct names; the trailing A/B is a construct suffix)
T13 sequence (P17948 801-1158): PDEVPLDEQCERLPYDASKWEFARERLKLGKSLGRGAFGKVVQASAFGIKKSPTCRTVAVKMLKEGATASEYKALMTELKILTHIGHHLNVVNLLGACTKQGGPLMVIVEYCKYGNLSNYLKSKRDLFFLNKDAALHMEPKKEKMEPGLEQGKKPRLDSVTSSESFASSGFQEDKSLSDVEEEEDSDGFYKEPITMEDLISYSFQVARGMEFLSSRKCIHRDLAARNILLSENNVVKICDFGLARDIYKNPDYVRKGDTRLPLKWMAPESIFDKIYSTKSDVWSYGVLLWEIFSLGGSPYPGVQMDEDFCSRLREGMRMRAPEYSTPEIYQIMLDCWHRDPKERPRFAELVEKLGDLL

CAMKK2B = molecular target: T14, CAMKK2B (Homo sapiens, UniProt Q96RR4)
T14 construct: purchased in-house DSF panel (SGC-style construct names; the trailing A/B is a construct suffix)

STK6A = molecular target: T15, STK6A (Homo sapiens, UniProt O14965)
T15 construct: purchased in-house DSF panel (SGC-style construct names; the trailing A/B is a construct suffix)
T15 sequence (O14965 122-403): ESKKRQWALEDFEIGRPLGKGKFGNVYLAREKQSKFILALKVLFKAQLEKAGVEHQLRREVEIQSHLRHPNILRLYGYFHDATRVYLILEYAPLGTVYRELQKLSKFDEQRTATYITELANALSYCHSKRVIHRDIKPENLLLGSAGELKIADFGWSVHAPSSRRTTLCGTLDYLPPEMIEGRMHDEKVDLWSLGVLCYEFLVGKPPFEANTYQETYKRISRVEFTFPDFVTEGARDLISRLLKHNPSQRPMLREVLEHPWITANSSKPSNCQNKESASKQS

CDKL1A = molecular target: T16, CDKL1A (Homo sapiens, UniProt Q00532)
T16 construct: purchased in-house DSF panel (SGC-style construct names; the trailing A/B is a construct suffix)
T16 sequence (Q00532 1-303): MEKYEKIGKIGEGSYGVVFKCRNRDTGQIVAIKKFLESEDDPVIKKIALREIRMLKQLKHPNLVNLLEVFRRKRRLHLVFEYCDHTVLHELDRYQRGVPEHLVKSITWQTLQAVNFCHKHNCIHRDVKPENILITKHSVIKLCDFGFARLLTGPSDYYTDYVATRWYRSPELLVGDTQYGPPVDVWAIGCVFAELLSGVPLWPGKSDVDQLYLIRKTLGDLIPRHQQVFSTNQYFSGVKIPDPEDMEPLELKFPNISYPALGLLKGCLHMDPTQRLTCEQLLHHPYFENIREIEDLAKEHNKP

T10 sequence (Q13153 249-545): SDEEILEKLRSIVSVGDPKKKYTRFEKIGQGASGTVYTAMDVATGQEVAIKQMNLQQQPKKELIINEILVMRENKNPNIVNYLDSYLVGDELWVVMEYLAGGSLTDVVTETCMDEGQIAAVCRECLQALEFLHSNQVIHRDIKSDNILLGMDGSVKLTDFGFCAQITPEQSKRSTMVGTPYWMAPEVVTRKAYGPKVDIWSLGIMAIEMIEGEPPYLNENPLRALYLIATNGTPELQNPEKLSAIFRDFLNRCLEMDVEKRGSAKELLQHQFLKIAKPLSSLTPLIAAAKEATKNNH
T9 sequence (P53779 whole entry): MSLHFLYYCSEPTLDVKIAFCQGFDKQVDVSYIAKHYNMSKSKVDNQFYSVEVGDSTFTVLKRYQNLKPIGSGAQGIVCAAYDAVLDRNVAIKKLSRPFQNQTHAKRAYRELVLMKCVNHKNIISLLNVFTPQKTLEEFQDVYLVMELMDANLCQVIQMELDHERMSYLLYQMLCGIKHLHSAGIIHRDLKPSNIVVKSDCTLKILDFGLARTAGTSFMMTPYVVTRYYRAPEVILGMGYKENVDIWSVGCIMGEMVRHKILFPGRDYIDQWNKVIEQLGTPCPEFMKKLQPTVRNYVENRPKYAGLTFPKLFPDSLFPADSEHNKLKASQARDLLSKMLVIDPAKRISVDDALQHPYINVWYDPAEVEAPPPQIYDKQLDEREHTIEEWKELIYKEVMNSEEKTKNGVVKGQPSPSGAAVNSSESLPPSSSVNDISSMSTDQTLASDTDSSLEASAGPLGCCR
T3 sequence (P49137 64-325): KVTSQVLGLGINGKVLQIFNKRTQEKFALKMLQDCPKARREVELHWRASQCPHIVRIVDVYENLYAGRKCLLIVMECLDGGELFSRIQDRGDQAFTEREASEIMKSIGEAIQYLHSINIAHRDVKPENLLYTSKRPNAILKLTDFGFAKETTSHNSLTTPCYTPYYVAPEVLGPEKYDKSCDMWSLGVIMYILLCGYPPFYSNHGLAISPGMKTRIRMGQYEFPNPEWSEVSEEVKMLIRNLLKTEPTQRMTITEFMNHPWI
T5 sequence (Q16539 whole entry): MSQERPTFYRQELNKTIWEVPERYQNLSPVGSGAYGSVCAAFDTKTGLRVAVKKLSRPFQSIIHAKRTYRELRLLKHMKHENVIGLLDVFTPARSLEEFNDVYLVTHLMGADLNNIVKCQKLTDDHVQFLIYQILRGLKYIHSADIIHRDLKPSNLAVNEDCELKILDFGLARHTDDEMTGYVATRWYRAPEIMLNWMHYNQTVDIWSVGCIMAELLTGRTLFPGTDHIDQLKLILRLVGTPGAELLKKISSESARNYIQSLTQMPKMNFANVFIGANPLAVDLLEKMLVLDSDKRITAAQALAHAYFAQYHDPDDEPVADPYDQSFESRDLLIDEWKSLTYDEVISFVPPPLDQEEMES
T12 sequence (O94804 18-317): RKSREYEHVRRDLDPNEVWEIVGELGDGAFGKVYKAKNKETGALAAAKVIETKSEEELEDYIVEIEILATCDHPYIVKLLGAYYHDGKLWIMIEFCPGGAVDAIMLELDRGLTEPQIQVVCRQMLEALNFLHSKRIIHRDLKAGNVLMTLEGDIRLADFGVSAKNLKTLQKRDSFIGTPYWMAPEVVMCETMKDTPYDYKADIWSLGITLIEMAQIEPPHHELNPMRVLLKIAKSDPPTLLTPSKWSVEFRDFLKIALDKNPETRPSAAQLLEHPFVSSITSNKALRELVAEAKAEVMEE
T14 sequence (Q96RR4 161-449): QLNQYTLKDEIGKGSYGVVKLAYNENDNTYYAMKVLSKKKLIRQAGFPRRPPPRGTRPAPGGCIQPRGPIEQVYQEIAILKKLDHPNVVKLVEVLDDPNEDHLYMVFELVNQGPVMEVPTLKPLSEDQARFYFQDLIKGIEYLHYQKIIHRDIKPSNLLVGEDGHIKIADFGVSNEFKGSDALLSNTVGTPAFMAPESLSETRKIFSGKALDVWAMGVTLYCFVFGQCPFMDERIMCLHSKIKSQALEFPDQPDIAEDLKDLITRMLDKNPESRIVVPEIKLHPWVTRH
T8 sequence (P19784 whole entry): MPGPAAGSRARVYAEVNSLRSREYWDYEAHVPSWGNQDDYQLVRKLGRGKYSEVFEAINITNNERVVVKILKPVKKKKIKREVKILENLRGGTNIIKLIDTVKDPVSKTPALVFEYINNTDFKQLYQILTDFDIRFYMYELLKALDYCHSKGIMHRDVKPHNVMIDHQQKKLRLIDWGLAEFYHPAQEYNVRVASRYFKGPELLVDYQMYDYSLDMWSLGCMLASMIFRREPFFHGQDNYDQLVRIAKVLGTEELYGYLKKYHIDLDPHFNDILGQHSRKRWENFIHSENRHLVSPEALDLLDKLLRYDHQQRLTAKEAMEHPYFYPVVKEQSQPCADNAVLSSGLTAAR

ΔTm at 20 µM (EPHB3A) [°C] | ΔTm at 20 µM (PIM3A) [°C] | ΔTm at 20 µM (MAPKAPK2A) [°C] | ΔTm at 20 µM (STK3A) [°C] | ΔTm at 20 µM (MAPK14A) [°C] | ΔTm at 20 µM (NEK1A) [°C] | ΔTm at 20 µM (STK17A) [°C] | ΔTm at 20 µM (CSNK2A2A) [°C] | ΔTm at 20 µM (MAPK10A) [°C] | ΔTm at 20 µM (PAK1A) [°C] | ΔTm at 20 µM (STK17B) [°C] | ΔTm at 20 µM (STK10A) [°C] | ΔTm at 20 µM (FLT1) [°C] | ΔTm at 20 µM (CAMKK2B) [°C] | ΔTm at 20 µM (STK6A) [°C] | ΔTm at 20 µM (CDKL1A) [°C] | Compound
6.97 | -4.95 | 0.42 | 8.18 | 0.05 | 0.45 | 8.17 | 8.28 | 5.76 | 0.92 | 1.6 | 11.8 | 11.7 | 15.4 | 18.7 | 6.63 | CC(C)(C)OC(=O)NCCOCCOCCOCCOCCC(=O)N1CCN(c2cc(Nc3cc(C4CC4)[nH]n3)nc(Nc3ccc(CC#N)cc3)n2)CC1 [4-L]
2.47 | 0.61 | 0.95 | 8.81 | 0.52 | 0.017 | 5.46 | 6.77 | 6.08 | -0.24 | 1.81 | 7.84 | 8.06 | 10.7 | 12.2 | 6.41 | CC(C)(C)OC(=O)NCCCOCCOCCOCCCNC(=O)c1cc(Nc2cc(C3CC3)[nH]n2)nc(Nc2ccc(CC#N)cc2)n1 [5-L]
4.23 | -0.28 | 0.53 | 9.87 | 0.11 | 0.62 | 6.97 | 7.92 | 5.33 | 1.05 | 2.58 | 9.37 | 9.16 | 9.77 | 14.4 | 6.89 | CCOC(=O)c1cc(Nc2cc(C3CC3)[nH]n2)nc(Nc2ccc(CC#N)cc2)n1 [compound 5]
